Earlier results as cited in patent US20250179129A1, “ZINC FINGER PEPTIDES, PEPTIDE ARRAYS, AND METHODS OF USE THEREOF” (The Regents of the University of California, priority 2022, published 2025).

Tested on: single-strand RNA containing a GGU motif

SDGDWICPDKKCGNVNFARRTSCNRCGREKTT (listed as Homo sapiens) [zinc finger in ZRANB2]
affinity for single-strand RNA containing a GGU motif: micromolar
